Reference: PMC10600239, “Selective MCL-1 inhibitor ABBV-467 is efficacious in tumor models but is associated with cardiac troponin increases in patients” (Communications Medicine, 2023)

What was measured:
Test in all cases: Off-target profiling (Supplementary Data 1)
[1] = biological target: off-target receptors, ion channels, and transporters (Homo sapiens, UniProt P23219); conditions: CEREP
[2] = biological target: off-target receptors, ion channels, and transporters (Homo sapiens, UniProt P05771); conditions: TR-FRET Kinome, SignalChem A-1167389.7 .05(Subs Conc)
[3] = biological target: off-target receptors, ion channels, and transporters (Homo sapiens, UniProt P48729); conditions: TR-FRET Kinome; Invitrogen A-1180691.2 .05(Subs Conc)
[4] = biological target: off-target receptors, ion channels, and transporters (Homo sapiens, UniProt Q96GD4); conditions: TR-FRET Kinome; Invitrogen A-1202211.2 .05(Subs Conc)
[5] = biological target: off-target receptors, ion channels, and transporters (Homo sapiens, UniProt Q92918); conditions: TR-FRET Kinome; SignalChem A-1169612.6 .025(Subs Conc)
[6] = biological target: off-target receptors, ion channels, and transporters (Homo sapiens, UniProt P49336); conditions: TR-FRET Kinome; Invitrogen A-1167389.7 .025(Subs Conc)
[7] = biological target: off-target receptors, ion channels, and transporters (Homo sapiens, UniProt P30411)
[8] = biological target: off-target receptors, ion channels, and transporters (Homo sapiens, UniProt Q12851); conditions: TR-FRET Kinome; Invitrogen A-1169612.6 .04(Subs Conc)
[9] = biological target: off-target receptors, ion channels, and transporters (Homo sapiens, UniProt Q9UL54); conditions: TR-FRET Kinome; Invitrogen A-1169612.6 .2(Subs Conc)
[10] = biological target: off-target receptors, ion channels, and transporters (Homo sapiens, UniProt Q9UKP6); conditions: CEREP
[11] = biological target: off-target receptors, ion channels, and transporters (Homo sapiens, UniProt Q04771); conditions: TR-FRET Kinome; Invitrogen A-1180691.2 .05(Subs Conc)
[12] = biological target: off-target receptors, ion channels, and transporters (Homo sapiens, UniProt P25101)
[13] = biological target: off-target receptors, ion channels, and transporters (Homo sapiens, UniProt Q05397); conditions: TR-FRET Kinome; Invitrogen A-1167389.7 .05(Subs Conc)
[14] = biological target: off-target receptors, ion channels, and transporters (Homo sapiens, UniProt O43293); conditions: TR-FRET Kinome; Invitrogen A-1180691.2 .1(Subs Conc)
[15] = biological target: off-target receptors, ion channels, and transporters (Homo sapiens, UniProt P21554)
[16] = biological target: off-target receptors, ion channels, and transporters (Homo sapiens, UniProt P17948); conditions: TR-FRET Kinome; Invitrogen A-1167389.7 .0125(Subs Conc)
[17] = biological target: off-target receptors, ion channels, and transporters (Homo sapiens, UniProt Q16288); conditions: TR-FRET Kinome; Invitrogen A-1202211.2 .025(Subs Conc)
[18] = biological target: off-target receptors, ion channels, and transporters (Homo sapiens, UniProt P50750); conditions: TR-FRET Kinome; Invitrogen A-1180691.2 .01(Subs Conc)
[19] = biological target: off-target receptors, ion channels, and transporters (Homo sapiens, UniProt Q13627); conditions: TR-FRET Kinome; Invitrogen A-1180691.2 .0125(Subs Conc)
[20] = biological target: off-target receptors, ion channels, and transporters (Homo sapiens, UniProt Q13464); conditions: TR-FRET Kinome; Invitrogen A-1213250.2 .1(Subs Conc)
[21] = biological target: off-target receptors, ion channels, and transporters (Homo sapiens, UniProt P52333); conditions: TR-FRET Kinome; Invitrogen A-1180691.2 .05(Subs Conc)
[22] = biological target: off-target receptors, ion channels, and transporters (Homo sapiens, UniProt O95819); conditions: TR-FRET Kinome; Invitrogen A-1180691.2 .1(Subs Conc)
[23] = biological target: off-target receptors, ion channels, and transporters (Homo sapiens, UniProt P14416)
[24] = biological target: off-target receptors, ion channels, and transporters (Homo sapiens, UniProt Q06187); conditions: TR-FRET Kinome; Invitrogen A-1167389.7 .2(Subs Conc)
[25] = biological target: off-target receptors, ion channels, and transporters (Homo sapiens, UniProt Q06418); conditions: TR-FRET Kinome; Invitrogen A-1169612.6 .05(Subs Conc)

Chain of off-target receptors, ion channels, and transporters (Homo sapiens, UniProt Q9UKP6) (Q9UKP6 whole entry): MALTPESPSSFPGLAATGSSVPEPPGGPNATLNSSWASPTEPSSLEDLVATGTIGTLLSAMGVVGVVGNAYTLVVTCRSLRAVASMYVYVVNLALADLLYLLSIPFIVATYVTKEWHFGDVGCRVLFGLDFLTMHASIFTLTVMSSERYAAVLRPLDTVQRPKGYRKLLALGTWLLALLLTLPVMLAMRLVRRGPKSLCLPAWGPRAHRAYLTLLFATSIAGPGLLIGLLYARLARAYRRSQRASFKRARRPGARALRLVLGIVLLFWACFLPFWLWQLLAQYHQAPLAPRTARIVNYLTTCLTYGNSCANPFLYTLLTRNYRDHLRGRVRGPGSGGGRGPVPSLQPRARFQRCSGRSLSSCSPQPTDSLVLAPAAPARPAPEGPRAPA
Chain of off-target receptors, ion channels, and transporters (Homo sapiens, UniProt P05771) (P05771 2-671): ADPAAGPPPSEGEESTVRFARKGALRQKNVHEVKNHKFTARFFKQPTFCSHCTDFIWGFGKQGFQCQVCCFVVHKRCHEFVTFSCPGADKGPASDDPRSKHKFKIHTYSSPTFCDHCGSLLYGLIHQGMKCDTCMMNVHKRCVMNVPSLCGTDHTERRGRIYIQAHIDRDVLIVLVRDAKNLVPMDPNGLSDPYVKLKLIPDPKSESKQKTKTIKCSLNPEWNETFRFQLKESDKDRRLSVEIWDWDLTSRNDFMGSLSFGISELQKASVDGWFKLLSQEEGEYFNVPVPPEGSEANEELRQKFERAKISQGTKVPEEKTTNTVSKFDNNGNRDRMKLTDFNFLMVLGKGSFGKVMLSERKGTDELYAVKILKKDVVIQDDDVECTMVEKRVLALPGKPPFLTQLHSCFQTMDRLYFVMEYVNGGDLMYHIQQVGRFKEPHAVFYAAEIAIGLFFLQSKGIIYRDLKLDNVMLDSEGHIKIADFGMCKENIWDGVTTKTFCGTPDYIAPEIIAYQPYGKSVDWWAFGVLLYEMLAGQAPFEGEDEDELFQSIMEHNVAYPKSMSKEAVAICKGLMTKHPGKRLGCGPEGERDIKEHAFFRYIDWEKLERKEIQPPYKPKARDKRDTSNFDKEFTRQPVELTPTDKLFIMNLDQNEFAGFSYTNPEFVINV
Chain of off-target receptors, ion channels, and transporters (Homo sapiens, UniProt Q16288) (Q16288 32-839): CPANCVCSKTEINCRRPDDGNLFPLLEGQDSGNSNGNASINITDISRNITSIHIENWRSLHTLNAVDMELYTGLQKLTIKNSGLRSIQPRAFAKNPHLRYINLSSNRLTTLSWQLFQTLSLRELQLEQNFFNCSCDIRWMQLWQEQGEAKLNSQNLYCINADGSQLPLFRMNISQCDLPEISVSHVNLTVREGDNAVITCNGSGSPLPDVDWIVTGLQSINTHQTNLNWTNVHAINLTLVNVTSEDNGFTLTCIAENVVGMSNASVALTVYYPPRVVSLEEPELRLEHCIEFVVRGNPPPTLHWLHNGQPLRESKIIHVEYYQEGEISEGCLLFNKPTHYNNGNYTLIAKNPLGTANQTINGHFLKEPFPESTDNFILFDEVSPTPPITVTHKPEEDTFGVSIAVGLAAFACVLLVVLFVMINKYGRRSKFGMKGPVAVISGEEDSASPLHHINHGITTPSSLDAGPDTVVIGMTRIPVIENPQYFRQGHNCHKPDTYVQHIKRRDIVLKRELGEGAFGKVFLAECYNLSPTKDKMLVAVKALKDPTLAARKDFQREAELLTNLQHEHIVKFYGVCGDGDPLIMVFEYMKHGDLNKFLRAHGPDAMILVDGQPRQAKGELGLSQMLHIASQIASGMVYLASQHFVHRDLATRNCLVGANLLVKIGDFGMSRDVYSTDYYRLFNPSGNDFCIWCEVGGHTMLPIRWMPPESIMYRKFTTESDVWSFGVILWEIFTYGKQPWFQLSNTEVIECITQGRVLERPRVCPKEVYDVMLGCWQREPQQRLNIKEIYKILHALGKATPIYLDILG
Chain of off-target receptors, ion channels, and transporters (Homo sapiens, UniProt P21554) (P21554 whole entry): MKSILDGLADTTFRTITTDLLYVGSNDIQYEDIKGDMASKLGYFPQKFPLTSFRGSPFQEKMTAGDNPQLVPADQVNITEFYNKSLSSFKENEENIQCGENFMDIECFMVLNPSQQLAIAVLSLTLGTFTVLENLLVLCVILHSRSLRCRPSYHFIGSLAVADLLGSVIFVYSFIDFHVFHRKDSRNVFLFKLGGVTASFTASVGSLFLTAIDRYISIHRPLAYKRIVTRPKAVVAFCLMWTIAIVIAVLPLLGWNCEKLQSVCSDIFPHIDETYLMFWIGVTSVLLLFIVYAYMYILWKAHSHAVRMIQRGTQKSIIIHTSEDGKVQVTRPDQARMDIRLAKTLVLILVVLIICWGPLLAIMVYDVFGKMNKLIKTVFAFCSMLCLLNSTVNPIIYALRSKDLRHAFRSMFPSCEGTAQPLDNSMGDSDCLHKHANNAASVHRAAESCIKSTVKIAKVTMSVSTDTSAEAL
Chain of off-target receptors, ion channels, and transporters (Homo sapiens, UniProt P25101) (P25101 21-427): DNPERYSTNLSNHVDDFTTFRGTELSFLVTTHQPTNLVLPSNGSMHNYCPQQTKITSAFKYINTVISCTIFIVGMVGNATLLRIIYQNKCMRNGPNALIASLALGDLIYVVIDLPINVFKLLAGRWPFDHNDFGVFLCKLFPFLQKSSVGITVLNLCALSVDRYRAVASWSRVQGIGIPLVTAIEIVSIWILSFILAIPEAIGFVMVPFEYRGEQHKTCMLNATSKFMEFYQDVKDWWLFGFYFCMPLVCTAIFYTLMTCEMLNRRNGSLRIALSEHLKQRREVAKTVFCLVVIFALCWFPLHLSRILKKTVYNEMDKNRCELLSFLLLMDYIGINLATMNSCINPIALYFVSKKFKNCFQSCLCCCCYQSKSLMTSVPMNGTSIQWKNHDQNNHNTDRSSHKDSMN
Chain of off-target receptors, ion channels, and transporters (Homo sapiens, UniProt P14416) (P14416 whole entry): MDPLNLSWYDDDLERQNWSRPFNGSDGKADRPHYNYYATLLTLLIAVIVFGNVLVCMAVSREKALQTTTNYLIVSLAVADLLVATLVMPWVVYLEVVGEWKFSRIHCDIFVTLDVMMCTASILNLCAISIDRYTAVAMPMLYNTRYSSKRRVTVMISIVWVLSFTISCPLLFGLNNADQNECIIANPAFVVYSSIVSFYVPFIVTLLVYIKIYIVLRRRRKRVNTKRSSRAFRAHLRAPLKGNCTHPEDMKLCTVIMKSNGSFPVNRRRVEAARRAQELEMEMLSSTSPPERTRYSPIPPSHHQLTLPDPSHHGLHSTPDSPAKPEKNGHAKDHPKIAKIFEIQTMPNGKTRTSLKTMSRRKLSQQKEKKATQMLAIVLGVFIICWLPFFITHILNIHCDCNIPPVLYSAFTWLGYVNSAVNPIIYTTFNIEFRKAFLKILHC
Chain of off-target receptors, ion channels, and transporters (Homo sapiens, UniProt P30411) (P30411 whole entry): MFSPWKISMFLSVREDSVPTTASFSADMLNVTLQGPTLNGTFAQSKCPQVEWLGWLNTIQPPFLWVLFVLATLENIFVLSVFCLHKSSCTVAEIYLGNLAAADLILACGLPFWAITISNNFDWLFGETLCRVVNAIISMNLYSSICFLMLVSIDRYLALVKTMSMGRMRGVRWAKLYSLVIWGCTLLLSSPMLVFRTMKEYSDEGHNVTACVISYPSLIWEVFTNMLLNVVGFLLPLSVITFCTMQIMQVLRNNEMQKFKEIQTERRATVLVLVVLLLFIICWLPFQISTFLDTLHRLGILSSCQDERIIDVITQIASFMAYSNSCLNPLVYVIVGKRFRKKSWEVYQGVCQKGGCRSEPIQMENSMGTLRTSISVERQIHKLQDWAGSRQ
Chain of off-target receptors, ion channels, and transporters (Homo sapiens, UniProt Q06187) (Q06187 whole entry): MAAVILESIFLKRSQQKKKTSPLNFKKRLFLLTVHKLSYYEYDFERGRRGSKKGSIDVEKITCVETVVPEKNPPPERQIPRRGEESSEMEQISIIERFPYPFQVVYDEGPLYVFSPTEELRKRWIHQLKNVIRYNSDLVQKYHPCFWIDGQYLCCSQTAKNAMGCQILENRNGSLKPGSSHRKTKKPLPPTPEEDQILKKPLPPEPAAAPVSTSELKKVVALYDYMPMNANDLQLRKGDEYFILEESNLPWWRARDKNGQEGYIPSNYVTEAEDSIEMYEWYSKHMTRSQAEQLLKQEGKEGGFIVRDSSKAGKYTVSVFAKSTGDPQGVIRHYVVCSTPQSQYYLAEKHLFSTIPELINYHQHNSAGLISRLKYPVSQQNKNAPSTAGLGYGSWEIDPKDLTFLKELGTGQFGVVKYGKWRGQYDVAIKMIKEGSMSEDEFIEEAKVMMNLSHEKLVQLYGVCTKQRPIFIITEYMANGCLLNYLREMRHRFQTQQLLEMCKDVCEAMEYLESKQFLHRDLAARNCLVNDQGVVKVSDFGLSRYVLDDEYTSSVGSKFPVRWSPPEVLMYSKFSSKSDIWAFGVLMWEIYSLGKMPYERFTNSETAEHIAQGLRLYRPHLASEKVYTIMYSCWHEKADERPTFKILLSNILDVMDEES
Chain of off-target receptors, ion channels, and transporters (Homo sapiens, UniProt Q04771) (Q04771 21-509): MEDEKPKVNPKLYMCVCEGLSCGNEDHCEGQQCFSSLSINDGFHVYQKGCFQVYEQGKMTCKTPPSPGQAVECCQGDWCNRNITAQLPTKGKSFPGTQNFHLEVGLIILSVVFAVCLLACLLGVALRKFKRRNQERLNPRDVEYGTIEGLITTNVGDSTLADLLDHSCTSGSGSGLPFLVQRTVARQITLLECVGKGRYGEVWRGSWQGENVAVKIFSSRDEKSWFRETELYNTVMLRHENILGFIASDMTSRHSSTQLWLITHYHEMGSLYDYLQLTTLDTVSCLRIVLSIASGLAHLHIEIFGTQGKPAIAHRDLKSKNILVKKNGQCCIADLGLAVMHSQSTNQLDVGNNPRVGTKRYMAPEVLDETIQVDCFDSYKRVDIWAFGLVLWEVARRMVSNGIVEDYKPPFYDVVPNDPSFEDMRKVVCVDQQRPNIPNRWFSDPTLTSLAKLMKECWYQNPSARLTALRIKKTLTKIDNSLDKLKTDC

Cc1c(Cl)c2c(Cl)c(C)c1-c1c(-c3ccc(F)cc3)sc3ncnc(c13)O[C@@H](C(=O)O)Cc1cc(ccc1OCc1ccnc(-c3ccc(OC[C@H]4COCCO4)cc3)n1)OC[C@@H](CN1CCN(C)CC1)O2 [ABBV-467]
COX1 Human (Enzymatic Assay) - IC50 [1]: 8.6 µM | IC50 ([2]; read-out: PKCbeta2 - IC50): > 10 µM | Ki ([2]; read-out: PKCbeta2 - Ki): > 3.9 µM | Ck1alpha1 - IC50 [3]: > 10 µM | Aurora1 - IC50 [4]: > 10 µM | MAP4K1 - IC50 [5]: > 10 µM | CDK8/Cyclin C - IC50 [6]: > 10 µM | B2 CHO Human - EC50 ([7]; Bioprofiling 6pt Ag): > 10 µM | B2 CHO Human - IC50 ([7]; Bioprofiling 6pt Antag, Bradykinin): >10.00 µM | MAP4K2 - IC50 [8]: > 10 µM | TAOK2 - IC50 [9]: > 10 µM | EC50 ([10]; read-out: Urotensin-II (UT1) Human (Functional - Agonist Effect) - EC50): > 30 µM | IC50 ([10]; read-out: Urotensin-II (UT1) Human (Functional - Antagonist Effect) - IC50): > 30 µM | ACVR1 - IC50 [11]: > 10 µM | ETA CHO Human - EC50 ([12]; Bioprofiling 6pt Ag): > 10 µM | ETA CHO Human - IC50 ([12]; Bioprofiling 6pt Antag, Endothelin-1 (ET-1)): > 10 µM | FAK - IC50 [13]: > 10 µM | Zipk - IC50 [14]: > 10 µM | CB1 CHO Human - EC50 ([15]; Bioprofiling 6pt Ag): > 10 µM | CB1 CHO Human - IC50 ([15]; Bioprofiling 6pt Antag, WIN 55,212-2): > 10 µM | Flt1 - IC50 [16]: > 10 µM | TrkC - IC50 [17]: > 10 µM | TrkC - Ki [17]: >4.65 µM | CDK9/Cyclin K - IC50 [18]: 4.24 µM | Dyrk1A - IC50 [19]: > 10 µM | Rock1 - IC50 [20]: > 10 µM | JAK3 - IC50 [21]: > 10 µM | MAP4K4 - IC50 [22]: > 10 µM | D2L CHO Human - EC50 ([23]; Bioprofiling 6pt Ag): > 10 µM | D2L CHO Human - IC50 ([23]; Bioprofiling 6pt Antag, Quinpirole): > 10 µM | BTK - IC50 [24]: > 10 µM | TYRO3 - IC50 [25]: > 10 µM
